Measured values taken from patent US8859783B2, “Indirubin-3′-oxime derivatives as potent cyclin dependent kinase inhibitors” (Anygen Co., Ltd., priority 2010, dated 2014).
“Also recorded” adds a separate entry of the source.

Legend:
[1] = tested on: MCF-7 human breast cancer cell; assay: SRB cell proliferation assay, MCF-7; format: cell-based; conditions: MCF7, 72 h, 3 days
Method: (§1) ^a A series of indirubin derivatives were tested at five concentrations for their effects on various human cancer cell lines using SRB assay, as described in the Experimental Section.
(§2) Cells (A549, HT1080, HCT116, K562, SNU638, KB, MCF-7) were counted, diluted to 5×10^4 cells/mL with fresh medium (MEME, DMEM or RPMI containing 10% FBS), and added 190 μL of cell suspension to 96-well plates containing various concentrations of test compounds (10 μL in 10% aqueous DMSO). Test plates were incubated for 3 days at 37° C. in CO2 incubator. For zero day controls, cells were incubated for 30 min at 37° C. in CO2 incubator. All treatments were performed in triplicate. After the incubation periods, cells were fixed with 50 μL of cold 50% TCA at 4° C. for 30 min, washed 5 times with tap water, and air-dried. The fixed cells were stained with 0.4% SRB solution in 1% aqueous acetic acid at room temperature for 1 h. Free SRB solution was then removed by rinsing 5 times with 1% acetic acid, and air-dried. The bound dye was dissolved with 200 µL of 10 mM Tris-base (pH 10.0), and absorbance was determined at 515 nm using an ELISA microplate reader. Finally, the absorbance values obtained with each of the treatment procedures were averaged, and the average values obtained with the zero day control were subtracted.

[2] = tested on: HCT116 human colon cancer cell; assay: SRB cell proliferation assay, HCT116; format: cell-based; conditions: 3 days
Method: as §1, §2

[3] = tested on: SNU638 human stomach cancer cell; assay: SRB cell proliferation assay, SNU638; format: cell-based; conditions: SNU-638, 72 h, 3 days
Method: as §1, §2

[4] = tested on: K562 human leukemia cell; assay: SRB cell proliferation assay, K562; format: cell-based; conditions: K562, 72 h, 3 days
Method: as §1, §2

[5] = tested on: KB human nasopharyngeal cancer cell; assay: SRB cell proliferation assay, KB; format: cell-based; conditions: 72 h, 3 days
Method: as §1, §2

[6] = tested on: A549 human lung cancer cell; assay: SRB cell proliferation assay, A549; format: cell-based; conditions: A549, 72 h, 3 days
Method: as §1, §2

[7] = tested on: HT1080 human fibro sarcoma cell; assay: SRB cell proliferation assay, HT1080; format: cell-based; conditions: HT-1080, 72 h, 3 days
Method: as §1, §2

[8] = tested on: CDK1; conditions: from a report; read-out: CDK1 inhibitory activity IC50; cited from earlier work
[9] = target: CDK1/cyclin B (Homo sapiens, UniProt P06493); assay: CDK1/cyclin B kinase assay; format: biochemical; conditions: read-out: IC50 in CDK1/cycline B kinase assay
Excerpt: The reaction was initiated by the addition of the MgATP mix.

[10] = tested on: PCNA; assay: Immunohistochemical staining for PCNA in tumor; format: in vivo, SD rats; conditions: 5 mg/kg i.v.
Method: (§3) The excised solid tumors were fixed in 10% buffered formalin and embeddedin paraffin. For optical microscopic examinations, 4-μm sectioned tissues were stained with H&E. Immunohistochemical staining was performed with the avidin-biotin complex method using anti-PCNA antibodies. The immune reactions were visualized with 3,3′-diaminobenzidine and counterstained with Mayer's hematoxylin. A TUNEL assay was performed using an ApopTag PlusPeroxidase In Situ Apoptosis Detection kit (Intergen, Purchase, N.Y.) according to the manufacturer's instructions. Briefly, the slides were deparaffinized and treated with 20 μg/mL proteinase K at 37° C. for 15 min to enhance staining. After immersion 3% hydrogen peroxide to block the endogenous peroxidase, the slides were incubated with a reaction buffer containing terminal de-oxynucleotidyl transferase at 37° C. for 1 h. The slides were then incubated with a peroxidase-conjugated anti-digoxigenin antibody for 30 min, and the reaction products were visualized with a 0.03% 3,3′-diaminobenzidine solution containing 2 mM hydrogen peroxide. The slides were counterstained with 0.5% methyl green.

[11] = Tumor xenograft animal model, body weight; format: in vivo, SD rats; conditions: 5 mg/kg i.v. every other day, five times
Excerpt: The k-ras-transformed rat kidney epithelial cell line (RK3E-ras) were maintained in DMEM supplemented with 10% FCS, 100 units/mL penicillin, and 100 Ag/mL streptomycin. RK3E-ras cells were kindly provided by Dr. Eric Fearon (University of Michigan Medical School, Ann Arbor, Mich.) and have been described in the previous report. Male SD rats (6 weeks of age) were used to examine the inhibition of tumor growth in vivo. RK3E-ras-Luc cells (5×10^6) were implanted subcutaneously into the flank of the rats on Day 0, and rats were grouped randomly (5 […]/group) on Day 5 as previously described. […] The animals were sacrificed 48 hr after the final administration, and rat weights and tumor volumes were measured. The tumor growth volumes were calculated as follows: V=(ab^2)/2, where, a is the longest diameter and b is the shortest diameter of the tumor. All experiments were conducted under protocols approved by the Animal Care and Use Committee at Chosun University School of Dentistry (Gwangju, South Korea).

[12] = target: T1, TrkA (Homo sapiens, UniProt P04629); assay: HTRF kinase assay, TrkA; format: biochemical
T1 construct: Recombinant proteins containing kinase domain were purchased from Millipore (Billerica, Mass.); purchased Millipore (Billerica, Mass.)
Method: (§4) Inhibition of kinase activity against a variety of recombinant kinases (c-Met, Met M1250T, Ron, VEGF2, EGFR, TrkA, PI3Kγ, IKKβ Insulin receptor, Aurora A) was measured using homogeneous time-resolved fluorescence (HTRF) assays. Briefly, assays are based on the phosphorylation of peptide substrates in the presence of ATP. Resulting phosphorylated substrates are detected by TR-FRET (Time Resolved-Fluorescence Resonance Energy Transfer) signal. Recombinant proteins containing kinase domain were purchased from Millipore (Billerica, Mass.). Optimal enzyme, ATP, and substrate concentrations were established for each enzyme using HTRF KinEASE kit (Cisbio) according to the manufacturer's instruction. Assays are consisted of enzymes mixed with serially diluted compounds and peptide substrates in kinase reaction buffer (250 mM HEPES (pH 7.0), 0.5 mM orthovanadate, 0.05% BSA, 0.1% NaN3). Following the addition of reagents for detection, TR-FRET signal was measured using EnVision multi-label reader (Perkin Elmer, Waltham, Mass.).

[13] = tested on: RK3E-ras-Luc cells; assay: In vivo bioluminescence imaging assay; parameters: species or system SD rats; conditions: day 10 after treatment, 5 mg/kg i.v.
Excerpt: For bioluminescence imaging, the rats received an i.p. injection of luciferin (Molecular Probes, Palo Alto, Calif.) with Rumpun/ketamine (1:1) anesthesia. The rats were imaged using a LAS-1000 plus imaging System (Fuji film. Tokyo. Japan) to record the bioluminescent signal emitted from the tumor. The LAS-1000 system equipped with a CCD camera was used for acquisition of the emitted light, and Living Image software (Multi Gauge v3.0) was used for data analysis.

[14] = tested on: T2, c-Met, Met M1250T, Ron, VEGF2, EGFR, TrkA, PI3Kγ, IKKβ Insulin receptor, Aurora A; assay: Kinase panel screening (HTRF); format: biochemical; conditions: 10 μM
T2 construct: other: 10 μM
Method: as §4

[15] = target: T3, IKKβ (Homo sapiens, UniProt O14920); assay: HTRF kinase assay, IKKβ; format: biochemical; conditions: dose response curves; read-out: IC50 against IKKβ
T3 construct: Recombinant proteins containing kinase domain were purchased from Millipore (Billerica, Mass.); purchased Millipore (Billerica, Mass.)
T3 sequence (O14920 15-300 limits assumed): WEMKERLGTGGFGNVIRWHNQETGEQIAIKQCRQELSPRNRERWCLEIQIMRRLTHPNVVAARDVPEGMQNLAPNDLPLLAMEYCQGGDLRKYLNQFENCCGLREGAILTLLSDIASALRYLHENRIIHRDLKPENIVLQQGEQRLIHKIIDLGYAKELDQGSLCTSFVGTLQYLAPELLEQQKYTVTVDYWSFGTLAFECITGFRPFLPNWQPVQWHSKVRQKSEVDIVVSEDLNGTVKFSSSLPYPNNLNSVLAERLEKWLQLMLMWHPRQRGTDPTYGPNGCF
Method: as §4

[16] = target: T4, CDK2/cyclin E (Homo sapiens, UniProt P24941); assay: CDK2/cyclin E kinase assay; format: biochemical; conditions: ten concentrations, dose response curves; read-out: CDK2/cyclin E inhibitory activity IC50
T4 construct: purchased Milipore (Billerica, Mass.)
Method: CDK1/cyclin B, CDK2/cyclin E were purchased from Milipore (Billerica, Mass.). The kinase activity was tested in buffer (8 mM MOPS pH 7.0, 0.2 mM EDTA, 10 mM MgAcetate), with 0.1 mg/mL histone H1, in the presence of 45 µM [—^33P] ATP (500 cpm/pmol) for CDK1 or 120 μM [γ—^33P] ATP (500 cpm/pmol) for CDK2 in a final reaction volume of […]. The reaction was initiated by the addition of the MgATP mix. After incubation for 40 min at 30° C., the reaction was stopped by the addition of 5 μL of 3% phosphoric acid solution. 10 μL aliquots of supernatant were spotted onto 2.5 cm×3 cm pieces of Whatman […] phosphocellulose paper, and 20 s later, the filters were washed three times for 5 min in 75 mM phosphoric acid and once in methanol prior to drying. The […] filters were counted in the presence of 1 mL of ACS (Amersham) scintillation fluid. The activities are usually expressed as a percentage of the maximal activity, i.e., in the absence of inhibitors. Controls were applied with appropriate dilutions of DMSO.

[17] = tested on: RK3E-ras-Luc cells; assay: Histology (H&E) of tumor tissue; format: in vivo, SD rats; conditions: 5 mg/kg i.v.
Method: as §3

[18] = tested on: RK3E-ras-Luc cells; assay: TUNEL assay on tumor sections; format: in vivo, SD rats; conditions: 5 mg/kg i.v.
Method: as §3

[19] = tested on: several human cancer cell lines; assay: SRB cell proliferation assay, summary over cell lines; format: cell-based; conditions: Homo sapiens, range over cell lines; read-out: anti-proliferative IC50, range over cancer cell lines
Method: as §1, §2

T1 sequence (P04629 510-781 limits assumed): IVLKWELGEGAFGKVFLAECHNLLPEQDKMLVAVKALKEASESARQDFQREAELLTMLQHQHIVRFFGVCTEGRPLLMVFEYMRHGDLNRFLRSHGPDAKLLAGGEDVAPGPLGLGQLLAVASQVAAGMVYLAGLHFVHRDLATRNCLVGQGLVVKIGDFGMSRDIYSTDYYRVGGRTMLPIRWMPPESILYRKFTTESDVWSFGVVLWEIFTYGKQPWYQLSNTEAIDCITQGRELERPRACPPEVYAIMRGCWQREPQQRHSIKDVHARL
Sequence of CDK1/cyclin B (P06493 whole entry): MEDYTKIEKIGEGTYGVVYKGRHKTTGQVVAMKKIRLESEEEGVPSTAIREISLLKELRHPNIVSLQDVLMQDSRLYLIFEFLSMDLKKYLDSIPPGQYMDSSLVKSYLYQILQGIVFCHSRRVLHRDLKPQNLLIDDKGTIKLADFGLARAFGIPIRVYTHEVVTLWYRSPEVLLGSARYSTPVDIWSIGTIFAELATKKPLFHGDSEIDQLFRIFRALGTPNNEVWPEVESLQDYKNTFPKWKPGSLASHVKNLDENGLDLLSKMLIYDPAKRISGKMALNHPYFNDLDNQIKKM
Sequence of CDK1/cyclin B (P14635 whole entry partner): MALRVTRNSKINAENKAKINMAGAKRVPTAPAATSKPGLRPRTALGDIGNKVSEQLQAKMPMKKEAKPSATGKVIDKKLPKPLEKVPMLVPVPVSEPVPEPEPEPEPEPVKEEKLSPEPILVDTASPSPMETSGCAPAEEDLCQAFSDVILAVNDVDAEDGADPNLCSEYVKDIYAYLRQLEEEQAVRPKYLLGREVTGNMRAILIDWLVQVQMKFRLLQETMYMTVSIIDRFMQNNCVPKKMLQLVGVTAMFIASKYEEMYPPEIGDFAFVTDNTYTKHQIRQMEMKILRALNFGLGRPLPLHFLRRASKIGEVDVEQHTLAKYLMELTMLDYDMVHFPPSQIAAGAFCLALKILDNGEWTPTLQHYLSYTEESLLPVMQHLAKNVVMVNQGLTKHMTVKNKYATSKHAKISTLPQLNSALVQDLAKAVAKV

Compound | IC50 [1] | IC50 ([2]; Homo sapiens, HCT-116, 72 h) | IC50 [3] | IC50 [4] | IC50 [5] | IC50 [6] | IC50 [7] | inhibitory activity against kinase panel [14] | IC50 [16] | further results
O=C1Nc2ccc([N+](=O)[O-])cc2C1=C1Nc2ccc(Br)cc2C1=NO [Compound 2, 5′-Bromo-5-nitro-indirubin-3′-oxime, reference compound] | 950 nM | 450 nM | 1140 nM | 770 nM | 1160 nM | 16.9 µM | 1450 nM |  |  | IC50 [8]: 190 nM
O=C1Nc2ccc([N+](=O)[O-])cc2/C1=C1/Nc2ccc(O)cc2C1=NO [Compound 11b, (2′Z, 3′E)-5′-Hydroxy-5-nitro-indirubin-3′-oxime] | 1200 nM |  |  |  | 1300 nM |  |  | weak inhibitory activity only against Aurora A, IKKβ and TrkA | 1.91 nM | IC50 [9]: 13 nM; expression level of PCNA compared with control [10]: decreased; body weight compared with control [11]: without loss of body weight; also recorded: no significant difference in body weight; inhibition at 1 µM ([12]; 1 μM, read-out: inhibitory activity against TrkA): 9%; IC50 ([12]; dose response curves, read-out: IC50 against TrkA): 4 µM; luminescence intensity (indicator of tumor growth) [13]: significantly decreased; IC50 [15]: 10 µM; histological analysis of treated tumor [17]: extensive cell death; TUNEL-positive apoptotic cells compared with control tissue [18]: about 6.0 fold; IC50 [19]: 200 to 3300 nM
O=C1Nc2ccc([N+](=O)[O-])cc2/C1=C1/Nc2ccc(Cl)cc2C1=NO [Compound 12b, (2′Z, 3′E)-5′-Chloro-5-nitro-indirubin-3′-oxime] | 500 nM | ~300 nM | 1160 nM | 560 nM | 1100 nM | 15.6 µM | 1250 nM | negligible inhibitory activities | 23.5 nM | IC50 [2]: 330 nM
